Values of other authors in patent US20080069870A1, “Controlled Release Compositions Comprising a Cephalosporin for the Treatment of a Bacterial Infection” (Elan Corporation Pic, priority 2005, published 2008).
Where two headings read alike, the source gives them in different places.

Tests used:
[1] = oral administration, after meals vs before meals

CC/C=C(\C(=O)N[C@@H]1C(=O)N2C(C(=O)OCOC(=O)C(C)(C)C)=C(COC(N)=O)CS[C@H]12)c1csc(N)n1.Cl [CFPN-PI, 2,2-Dimethylpropanoyloxymethyl (6R, 7R)-7-[(Z)-2-(2-aminothiazol-4-yl)pent-2-enylamino]-3-carabmoyloxymethyl-8-oxo-5-thia-1-azabicyclo[4.2.0]oct-2-ene-2-carboxylate monohydrochoride monohydrate]
solubility (in N, N-dimethylformamide): freely soluble
solubility (in diethyl ether): practically insoluble
solubility (in ethanol): sparingly soluble
solubility (in methanol): freely soluble
solubility (in water): only slightly soluble
absorption [1]: better after meals than before meals
